“And” between values parts separate entries of the source, which are not always exact repeats. Equal values may be shown once. Inconclusive results and toxic doses are left out.
System: L1210 leukemia ip in BDF1 mice, survival T/C
Assay: NCI In Vivo Anticancer Drug Screen. Data for tumor model L1210 Leukemia (intraperitoneal) in B6D2F1 (BDF1) mice
Details: endpoint: mean survival time, higher = longer survival
Method in brief: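 Mice bearing the transplanted tumor received compound or vehicle. Survival of the treated group was divided by that of the vehicle-treated control group to give the ratio.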

[1] = dose: 100.0 mg/kg/injection, schedule: Q04DX003 (ip), vehicle: saline with Tween-80
[2] = dose: 200.0 mg/kg/injection, schedule: Q04DX003 (ip), vehicle: saline with Tween-80
[3] = dose: 400.0 mg/kg/injection, schedule: Q04DX003 (ip), vehicle: saline with Tween-80
[4] = dose: 50.0 mg/kg/injection, schedule: Q01DX009 (ip), vehicle: saline
[5] = dose: 100.0 mg/kg/injection, schedule: Q01DX009 (ip), vehicle: saline
[6] = dose: 100.0 mg/kg/injection, schedule: Q04DX003 (ip), vehicle: saline
[7] = dose: 200.0 mg/kg/injection, schedule: Q04DX003 (ip), vehicle: saline
[8] = dose: 100.0 mg/kg/injection, schedule: Q01DX009 (ip), vehicle: Klucel (hydroxypropylcellulose) (HPC)
[9] = dose: 100.0 mg/kg/injection, schedule: Q04DX003 (ip), vehicle: Klucel (hydroxypropylcellulose) (HPC)
[10] = dose: 200.0 mg/kg/injection, schedule: Q04DX003 (ip), vehicle: Klucel (hydroxypropylcellulose) (HPC)
[11] = dose: 400.0 mg/kg/injection, schedule: Q04DX003 (ip), vehicle: Klucel (hydroxypropylcellulose) (HPC)

COc1ccc(Nc2nc(N)nc(CNc3ccc(Cl)cc3)n2)cc1
T/C [1]: 98 % of control | T/C [2]: 103 % of control | T/C [3]: 98 % of control

O=C(O)c1ccc(C2CC2)cc1
T/C (dose: 100.0 mg/kg/injection, schedule: Q01DX001 (ip), vehicle: other): 103 % of control | T/C (dose: 100.0 mg/kg/injection, schedule: Q04DX003 (ip), vehicle: other): 103 % of control | T/C (dose: 200.0 mg/kg/injection, schedule: Q01DX001 (ip), vehicle: other): 108 % of control | T/C (dose: 200.0 mg/kg/injection, schedule: Q04DX003 (ip), vehicle: other): 111 % of control | T/C (dose: 400.0 mg/kg/injection, schedule: Q01DX001 (ip), vehicle: other): 95 % of control | T/C (dose: 400.0 mg/kg/injection, schedule: Q04DX003 (ip), vehicle: other): 103 % of control

C=C1C(=O)N(C)CCC1(O)C(CC)C(=O)OC (centres undefined)
T/C (dose: 6.25 mg/kg/injection, schedule: Q01DX001 (ip), vehicle: saline): 98 % of control | T/C (dose: 12.5 mg/kg/injection, schedule: Q01DX001 (ip), vehicle: saline): 98 % of control | T/C (dose: 25.0 mg/kg/injection, schedule: Q01DX001 (ip), vehicle: saline): 98 % of control | T/C (dose: 50.0 mg/kg/injection, schedule: Q01DX001 (ip), vehicle: saline): 98 % of control

Cc1nc2cnn(C)c2nc1C
T/C [4]: 101 % of control | T/C [5]: 97 % of control | T/C [6]: 106 % of control | T/C (dose: 200.0 mg/kg/injection, schedule: Q01DX009 (ip), vehicle: saline): 88 % of control | T/C [7]: 100 % of control

CCCCCCP(=O)(CCCCCC)C1CCCC1
T/C [1]: 91 % of control | T/C [2]: 92 % of control

c1ccc(C2=C(c3ccccc3)C23SCCS3)cc1
T/C [8]: 101 % of control | T/C [9]: 94 % of control | T/C (dose: 200.0 mg/kg/injection, schedule: Q01DX009 (ip), vehicle: Klucel (hydroxypropylcellulose) (HPC)): 97 % of control | T/C [10]: 100 % of control | T/C (dose: 400.0 mg/kg/injection, schedule: Q01DX009 (ip), vehicle: Klucel (hydroxypropylcellulose) (HPC)): 98 % of control | T/C [11]: 96 % of control

COC(=O)/C=C/C(=O)OC
T/C (dose: 25.0 mg/kg/injection, schedule: Q04DX002 (ip), vehicle: Klucel (hydroxypropylcellulose) (HPC)): 97 % of control | T/C (dose: 50.0 mg/kg/injection, schedule: Q04DX002 (ip), vehicle: Klucel (hydroxypropylcellulose) (HPC)): 100 % of control | T/C (dose: 100.0 mg/kg/injection, schedule: Q04DX002 (ip), vehicle: Klucel (hydroxypropylcellulose) (HPC)): 103 % of control | T/C [9]: 104 % of control | T/C [6]: 101 % of control | T/C [10]: 101 % of control | T/C [7]: 107 % of control | T/C [11]: 112 % of control | T/C (dose: 400.0 mg/kg/injection, schedule: Q04DX003 (ip), vehicle: saline): 103 % of control

C#CCOCC(O)CCl (centres undefined)
T/C (dose: 75.0 mg/kg/injection, schedule: Q01DX001 (ip), vehicle: acetone): 101 % of control | T/C (dose: 150.0 mg/kg/injection, schedule: Q01DX001 (ip), vehicle: acetone): 92 % of control | T/C (dose: 300.0 mg/kg/injection, schedule: Q01DX001 (ip), vehicle: acetone): 89 % of control

O=C1c2cccc3c([N+](=O)[O-])ccc(c23)C(=O)N1CCCN1CCOCC1
T/C (dose: 25.0 mg/kg/injection, schedule: Q01DX009 (ip), vehicle: Klucel (hydroxypropylcellulose) (HPC)): 104 % of control | T/C (dose: 50.0 mg/kg/injection, schedule: Q01DX009 (ip), vehicle: Klucel (hydroxypropylcellulose) (HPC)): 98 % of control | T/C [8]: 93 % of control and 87 % of control

CC(=O)OC1C(C[N+](=O)[O-])OC(n2cnc3c(NC(=O)c4ccccc4)ncnc32)C(OC(C)=O)C1OC(C)=O (centres undefined)
T/C (dose: 50.0 mg/kg/injection, schedule: Q04DX002 (ip), vehicle: saline): 102 % of control | T/C (dose: 100.0 mg/kg/injection, schedule: Q04DX002 (ip), vehicle: saline): 100 % of control | T/C (dose: 200.0 mg/kg/injection, schedule: Q04DX002 (ip), vehicle: saline): 121 % of control

CNc1cn(C2OC(CO)C(O)C2O)c(=O)[nH]c1=O (centres undefined)
T/C (dose: 100.0 mg/kg/injection, schedule: Q01DX005 (ip), vehicle: saline): 96 % of control | T/C (dose: 200.0 mg/kg/injection, schedule: Q01DX005 (ip), vehicle: saline): 96 % of control

Cc1ccc(S)cc1
T/C [5]: 87 % of control

Nc1nc2c(ncn2-c2cccc(NS(=O)(=O)c3cccc(S(=O)(=O)F)c3)c2)c(=O)[nH]1
T/C (dose: 25.0 mg/kg/injection, schedule: Q01DX001 (ip), vehicle: Klucel (hydroxypropylcellulose) (HPC)): 96 % of control | T/C (dose: 50.0 mg/kg/injection, schedule: Q01DX001 (ip), vehicle: Klucel (hydroxypropylcellulose) (HPC)): 98 % of control | T/C (dose: 100.0 mg/kg/injection, schedule: Q01DX001 (ip), vehicle: Klucel (hydroxypropylcellulose) (HPC)): 94 % of control

Cc1cc(=O)n(C)c2c(C)cccc12
T/C [1]: 101 % of control | T/C [2]: 98 % of control | T/C [3]: 98 % of control

CC(C(O)c1ccncc1)[N+](=O)[O-] (centres undefined)
T/C (dose: 100.0 mg/kg/injection, schedule: Q04DX002 (ip), vehicle: saline with Tween-80): 92 % of control | T/C (dose: 200.0 mg/kg/injection, schedule: Q04DX002 (ip), vehicle: saline with Tween-80): 107 % of control | T/C (dose: 400.0 mg/kg/injection, schedule: Q04DX002 (ip), vehicle: saline with Tween-80): 92 % of control

C#CC(C)OCC(O)CCl (centres undefined)
T/C (dose: 25.0 mg/kg/injection, schedule: Q01DX009 (ip), vehicle: saline): 97 % of control | T/C [4]: 105 % of control | T/C [5]: 103 % of control and 89 % of control | T/C (dose: 100.0 mg/kg/injection, schedule: Q04DX003 (ip), vehicle: saline sonified): 97 % of control | T/C (dose: 200.0 mg/kg/injection, schedule: Q04DX003 (ip), vehicle: saline sonified): 87 % of control | T/C (dose: 400.0 mg/kg/injection, schedule: Q04DX003 (ip), vehicle: saline sonified): 103 % of control

CN(C)c1ccc(N=Nc2ccc3c(c2)C(=O)c2ccccc2C3=O)cc1
T/C (dose: 100.0 mg/kg/injection, schedule: Q01DX009 (ip), vehicle: other): 104 % of control | T/C (dose: 200.0 mg/kg/injection, schedule: Q01DX009 (ip), vehicle: other): 105 % of control | T/C (dose: 400.0 mg/kg/injection, schedule: Q01DX009 (ip), vehicle: other): 98 % of control

CC(=O)OCC1CCC(NC(=O)N(CCF)N=O)CC1 (centres undefined)
T/C (dose: 9.0 mg/kg/injection, schedule: Q01DX001 (ip), vehicle: saline with Tween-80): 106 % of control | T/C (dose: 13.0 mg/kg/injection, schedule: Q01DX001 (ip), vehicle: saline with Tween-80): 110 % of control | T/C (dose: 20.0 mg/kg/injection, schedule: Q01DX001 (ip), vehicle: saline with Tween-80): 100 % of control | T/C (dose: 45.0 mg/kg/injection, schedule: Q01DX001 (ip), vehicle: saline with Tween-80): 353 % of control

From PubChem BioAssay AID248 (DTP/NCI, 2004)
